Data from patent US11155821B2, “Compositions and methods for tagging ribonucleic acids” (The Regents of the University of Colorado, a body corporate, priority 2018, dated 2021).

Tests used:
[1] = molecular target: Cbl riboswitch RNA variant A (wild type env8); assay: Isothermal titration calorimetry (ITC), aptamer A; type: binding; details: ITC at 25° C., RNA buffer; mean of 3 independent experiments +/- STDEV
Description: (§1) ITC experiments were performed using protocols previously established and described [reference 30, 31]. Briefly, the RNA was dialyzed overnight at 4° C. into RNA buffer (100 mM KCl, 10 mM NaCl, 1 mM MgCl2, 50 mM HEPES, pH 8.0) using 6-8000 Dalton molecular weight cutoff dialysis tubing (Spectra/Por). The dialysis buffer was used to dissolve Cbl and Cbl-5xPEG-ATTO590, and to dilute RNA To the desired concentration. Titrations were performed at 25° C. using a MicroCal ITC 200 microcalorimeter (GE Healthcare) and data were fit using the Origin software suite as previously described [reference 61].

[2] = molecular target: truncated Cbl riboswitch RNA variant AT; assay: Isothermal titration calorimetry (ITC), aptamer AT; type: binding; details: ITC at 25° C., RNA buffer; mean of 3 independent experiments +/- STDEV
Description: as §1

[3] = molecular target: Cbl riboswitch RNA variant D; assay: Isothermal titration calorimetry (ITC), aptamer D; type: binding; details: ITC at 25° C., RNA buffer; mean of 3 independent experiments +/- STDEV
Description: as §1

[4] = test system: SM-KDM5B translation reporter tagged with 12 copies of Riboglow; assay: Translation assay, live U2-OS cells; type: cell-based
Description: U2-OS cells seeded on home-made imaging dishes as described above were bead loaded with a mix of 1 μg plasmid DNA encoding for the SM-KDM5B translation reporter, 3 μL of a 5 μM stock of the Cbl-fluorophore probe Cbl-4xGly-ATTO 590 and 1 μL of Alexa488-labeled Fab to bind N-terminal FLAG tags in the reporter. After 6-8 hours, cells were washed 3 times with PBS, and medium was replaced with FluoroBrite medium (Gibco). Imaging was performed under HILO conditions [reference 49] at 37° C. and 5% CO2 using an Andor Ixon Ultra DU897U-C50 EMCCD camera. When indicated, puromycin was added during the image acquisition at a final concentration of 50 μg/mL.

Broccoli = assay: Photobleaching of RNA/probe complexes, constant illumination, Broccoli; type: physicochemical; details: bound to Broccoli, within a second
Description: For photobleaching experiments, indicated probes and RNA (Table 10) were mixed before about 3 to 4× of microscope immersion oil (Olympus immersion oil type-F) was added and the solution was emulsified to generate droplets. Samples were prepared in RNA buffer for Cbl-fluorophore samples (100 mM KCl, 10 mM NaCl, 1 mM MgCl2, 50 mM HEPES, pH 8.0) and in Broccoli buffer (40 mM HEPES pH 7.4, 100 mM KCl, 1 mM MgCl2) for the DFHBI-1T/Broccoli sample. The droplets were sandwiched between a glass slide and a coverslip. The sample was placed on the sample stage of a Nikon Ti-E HCA widefield fluorescence microscope with the coverslip facing a 20× objective lens. Photostability was assessed in part by fixing the excitation rate, i.e. the number of absorbed excitation photons were the same for Cbl-fluorophore/RNA samples and the DFHBI-1T/Broccoli sample. The high irradiance for the DFHBI-1T Broccoli sample is a result of its low extinction coefficient. Images were acquired every 50 ms for DFHBI-1T/Broccoli and every 250 ms for others for 3 seconds, then every second for 47 seconds or longer, and the exposure time of each image was 15 ms for DFHBI-1T/Broccoli and 40 ms for others. A total of 6 to 15 droplets were analyzed for each sample.

ACTB-(2xdBroccoli) mRNA = assay: Stress granule (SG) assay, live U2-OS Halo-G3BP1 cells, Broccoli tag; type: cell-based, Homo sapiens; details: arsenite
Description: U2-OS cells stably producing GFP-G3BP1 or genomically producing Halo-G3BP1 were seeded at 0.25×10^6 cells in imaging dishes. One day after seeding, cells were chemically transfected with typically 2-μg plasmid DNA (1 μg of the ACTB plasmid fused with an RNA tag of interest mixed with 1 μg of the transfection marker pNLS-TagBFP (in pcDNA)) using the TransIT transfection system following manufacturer recommendations (Mirus). On the next day, cells were stained and bead loaded with the Cbl-fluorophore probe as described above. The media that was added after bead loading contained 0.5 mM sodium arsenite and cells were incubated at 37° C./5% CO 2 for 30-45 min to induce stress granules. Cells were rinsed once in PBS and Fluorobrite media (Gibco), supplemented with 0.5 mM sodium arsenite, was added for live cell imaging. For correlative live/fixed imaging where cells were first imaged live, followed by fixation and FISH/immunofluorescence imaging of the same cells, the following modifications were made to the protocol above. Instead of home-made imaging dishes, gridded imaging dishes (MatTek) were used. Dishes were coated with 1 μg/mL fibronectin (Sigma) for 4 hours and fibronectin was rinsed once with full media before cells were seeded. Because plasmid ACTB-(AT) 4x was used, a higher concentration of Cbl-5xPEG-ATTO590 was bead loaded (3 μL of 50 μM probe).
For live imaging of SGs tagged with 2xdBroccoli in U2-OS cells, the pinhole was 67.7 μm and the laser settings were as follows. For the DAPI channel, the laser was set at 5.0 (HV=110), for the GFP channel the laser was set at 1.0 (HV=110), for the TRITC channel the laser was set at 1.0 (HV=40). For live imaging of SGs tagged with MS2 stem-loop repeats in U2-OS cells, the pinhole was 67.7 μm and the laser settings were as follows. For the DAPI channel, the laser was set at 5.0 (HV=110), for the GFP channel the laser was adjusted for optimal contrast without detector saturation (approximately 1.0-2.5) (HV approximately 60-100), for the TRITC channel the laser was set at 0.9 (HV=40).

[5] = test system: RNA AT,MUT (four point mutations in the Cbl-binding site); assay: In vitro fluorescence turn-on, plate reader, aptamer AT,MUT; type: biochemical; details: probe 0.25 or 0.5 μM, RNA at least 5 μM
Description: (§2) The concentration of Cbl-fluorophore probes, free fluorophores and free Cbl was determined using extinction coefficients listed in Table 1B. In vitro experiments were conducted in RNA buffer (100 mM KCl, 10 mM NaCl, 1 mM MgCl2, 50 mM HEPES, pH 8.0). For the Cbl-fluorophore probes, the extinction coefficient of the fluorophores was used to determine the concentration. […] The fluorescence intensity of each probe was measured in the presence or absence of RNA in RNA buffer as technical triplicates in a Tecan Safire-II fluorescence plate. […] Samples were incubated for at least 20 minutes (min) at room temperature in the dark to allow for Cbl-binding of the RNA prior to data collection. The excitation wavelength for each probe is listed in Table 1B and the emission spectrum was collected in 1 nm increments for the range listed in Table 1B. Each emission spectrum was buffer subtracted, integrated and normalized to the signal of the free fluorophore at the same concentration. Resulting % fluorescence measurements were reproducible for measurements on different days.

RNA AT = assay: In vitro fluorescence turn-on, plate reader, aptamer AT; type: biochemical; details: probe 0.25 or 0.5 μM, RNA at least 5 μM
Description: as §2

C/C1=C2/N[C@H]([C@H](CC(N)=O)[C@@]2(C)CCC(=O)NC[C@@H](C)OP(=O)(O)O[C@H]2[C@@H](O)[C@@H](n3cnc4cc(C)c(C)cc43)O[C@@H]2CO)[C@]2(C)N=C(/C(C)=C3N=C(/C=C4N=C1[C@@H](CCC(N)=O)C\4(C)C)[C@@H](CCC(N)=O)[C@]\3(C)CC(N)=O)[C@@H](CCC(N)=O)[C@]2(C)CC(N)=O.[Co] [Cbl, cobalamin]
Kd [1]: 37 ± 1 nM
Kd [2]: 290 nM
Kd [3]: 2.2 ± 1.6 nM

COc1ccc(C[C@H](N)C(=O)N[C@H]2[C@@H](O)[C@H](n3cnc4c(N(C)C)ncnc43)O[C@@H]2CO)cc1 [Puromycin]
protein signal at translation sites ([4]; Puromycin added to cells with co-moving translation spots): rapid disappearance of the protein signal
mRNA spots colocalized with protein signal ([4]; after Puromycin treatment, 50 μg/mL): 30±12%

CC1=N/C(=C\c2cc(F)c(O)c(F)c2)C(=O)N1CC(F)(F)F [DFHBI-1T]
fluorescence remaining after photobleaching (Broccoli): < 20%
cells with Halo-G3BP1 labeled SGs where no corresponding SGs in the green Broccoli channel were detectable (ACTB-(2xdBroccoli) mRNA): 90%
total SGs detected in the green Broccoli channel (ACTB-(2xdBroccoli) mRNA): 4%
transfected cells in which at least one SG was detected in the green channel (ACTB-(2xdBroccoli) mRNA): 10%

C/C1=C2/[N-][C@H]([C@H](CC(N)=O)[C@@]2(C)CCC(=O)NC[C@@H](C)OP(=O)([O-])O[C@H]2[C@@H](O)[C@@H](n3cnc4cc(C)c(C)cc43)O[C@@H]2Cn2cc(CNC(=O)c3ccc4c(c3)C3(OC4=O)c4ccc(O)cc4Oc4cc(O)ccc43)nn2)[C@]2(C)N=C(/C(C)=C3N=C(/C=C4N=C1[C@@H](CCC(N)=O)C\4(C)C)[C@@H](CCC(N)=O)[C@]\3(C)CC(N)=O)[C@@H](CCC(N)=O)[C@]2(C)CC(N)=O.[C-]#N.[Co+3] [Cbl-FAM]
Fold fluorescence turn-on [5]: 0.5x
Fold fluorescence turn-on (RNA AT): 2.5x
